Results: patent US6288110A, “Pharmaceutical compositions comprising disulfiram” (Yeda Research and Development Co Ltd., priority 1998, dated 2001)
Entries after “also recorded” stand apart in the source; their conditions may differ. Like-named read-outs stand apart in the source and are kept apart here.

Tests used:
BALB/MK keratinocytes = assay: DNA synthesis (3H-thymidine incorporation) in BALB/MK keratinocytes; assay type: cell-based, murine; conditions: for IC (maximal): Mus musculus, Keratinocyte
Description: The BALB/MK epidermal keratinocyte cell line, kindly provided by Dr. S Aaronson (National Cancer Institute, Bethesda, Md., USA), was cultured (37° C., 10% CO2 humidified atmosphere) in calcium-free MEM (Beth Haemek, Israel) supplemented with 10% dialyzed FCS and murine EGF (5 ng/ml).
Bovine capillary endothelial cells (BCE) and bovine aortic BSMC were plated in 24-well plates (6000 cells per well) in 500 μl DMEM medium supplemented with 10% Colorado calf serum (CCS) (GIBCO, USA) and GPS. After 24 hours, medium was changed to starvation medium (2% CCS, 0.5% BSA, GPS) for 24 hours. ^3 H-methyl-thymidine (5 μCi/ml) was added for the last 6 hours. DNA synthesis assays were performed as described above, in triplicates. DNA synthesis assays in BALB/MK keratinocytes were performed as previously described (Marikovsky, 1995).-DNA synthesis assays were performed in triplicates.
Disulfiram was prepared in 0.1 mM stock solutions in DMSO. Control samples were incubated with the appropriate concentration of DMSO. Inhibition was calculated as percentage of DNA synthesis of control.
To determine whether disulfiram acts directly on endothelial cells rather than on accessory cells such as macrophages and mast cells that can be responsible for the development of an angiogenic response in vivo, the effect of the drug on the growth of BCE cells was examined in vitro as described in section (c) of "Materials and Methods" above. DNA synthesis in BCE cells was measured in presence of increasing concentrations of disulfiram incubated for 24 hours with the cells. […] Maximal inhibitory activity (80%) for BSMC was at 0.5-1 μM disulfiram, while maximal inhibitory activity for C6 glioma cells or BALB/MK keratinocytes was at concentrations 10 fold higher (2-3 μM) than those for endothelial cells (0.2-0.5 μM).
To examine the time course of the effect of disulfiram and whether the effect was reversible, cells were incubated with disulfiram for various periods of time (1, 2, 4 and 24 hours), then washed away and DNA synthesis was determined. One to 4 hours of exposure to disulfiram were enough to induce maximal inhibitory effect at concentrations ranging from 0.5 μM for BCE cells (FIG. 3A) to 5 μM for BALB/MK keratinocytes (FIG. 3C) and C6 glioma cells (FIG. 3D). […] BSMC were less sensitive as far as time course is concerned when incubated with 1 μM disulfiram. Following 4 hours of incubation with 1 μM disulfiram, DNA synthesis inhibition in BSMC reached only 50% (FIG. 3B). The data shown here indicate that the damage for capillary endothelial cells, following a short incubation of 1 to 2 hours, was maximal and that, at least in a time scale of 24 hours, this damage was non-reversible.

[1] = test system: capillary endothelial (BCE) cells; assay: TUNEL assay for apoptosis, BCE cells; assay type: cell-based, bovine; conditions: 1 μM, 6 hours
Description: Cells were cultured on microscope slides for 48 hours in presence of growth media as described above, until reaching 40-50% confluency. Disulfiram was then added to the cells for 6 hours or for 20 hours in the case of BALB/MK keratinocytes, fixed with 4% paraformaldehyde and washed three times with PBS. Apoptosis was analyzed by the in situ TUNEL staining carried out as described (Wride, 1994). Briefly, microscope slides were incubated for 15 min in 2×SSC buffer at 60° C., washed in DDW and incubated with 20 μg/ml proteinase K (Boehringer Mannheim) for 15 min at room temperature. After a wash with DDW, endogenous peroxidases were inactivated by incubating the slides with 2% H2 O2 in PBST (PBS with 0.05% Tween 20) for 10 min at room temperature. Slides were then incubated in TdT buffer (Boehringer Mannheim) for 5 min at room temperature, and a reaction mixture containing 5×TdT buffer and 1 μl biotin-21-dUTP (Clontech, 1 mM stock) and 8 units of the TdT enzyme (Boehringer Mannheim) in total volume of 50 μl was subsequently added. The reactions were carried out at 37° C. for 1.5 hr in a humid chamber. The slides were washed in 2×SSC, DDW and finally with PBS and covered with 10% skim milk in PBST for 15 min. […]

fibroblasts = assay: Induction of apoptosis, fibroblasts; assay type: cell-based
[2] = test system: Lewis lung carcinoma (D122) metastasis in the lungs; assay: Lewis lung carcinoma metastasis, footpad model; assay type: in vivo, C57/BL mice
Source text: The Lewis lung carcinoma (3LL), which originated spontaneously in a C57/BL/6J (H-2^b) mouse, is a malignant tumor that produces spontaneous lung metastases. The metastatic clone D122, kindly provided by Prof. Lea Eisenbach (Weizmann Institute of Science, Rehovot, Israel), was used herein for tissue culture and for in vivo experiments. The cell cultures were maintained in DMEM supplemented with 10% heat-inactivated FCS, glutamine, antibiotics, sodium pyruvate and nonessential amino acids.
Two metastasis models were used: 1. The footpad model. 2. The i.v. model. The assay of tumor development in the footpad model and evaluation of lung metastases was done as previously described (Eisenbach, 1983). Briefly, eight mice in each experimental group were inoculated with 2×10^5 D122 cells in 0.05 ml PBS in the right hind footpad. Three days following tumor cells injection, mice were treated per os by disulfiram or saline 3 times per week. The tumors became palpable within 11-19 days. Local tumor growth was determined by measuring the footpad diameter with a calipers. At 26-40 days following inoculation, when local tumor reached a diameter of 6-7 mm, mice were anesthetized with a single dose of 75 mg/kg ketamine+3 mg/kg xylazine (i.p.) and the tumor-bearing leg was removed by amputation above the knee joint. To measure progress of metatases the mice were killed 24 days following amputation by injecting 20 mg/mouse xylazine i.p. and lungs were weighed.
Twenty-four days following the removal of the tumor-bearing leg, lungs were weighed.

normal mice = conditions: cited from earlier work

CCN(CC)C(=S)SSC(=S)N(CC)CC [disulfiram, Bis(diethylthiocarbamoyl) disulfide]
maximal inhibitory concentration relative to endothelial cells, fold higher (BALB/MK keratinocytes; BALB/MK vs endothelial cells (0.2-0.5 μM)): 10 fold
persistence of inhibitory effect after short exposure (BALB/MK keratinocytes; MK, 24 hours following short exposure): inhibitory effect seemed to be maintained
IC (maximal) (BALB/MK keratinocytes; BALB/MK keratinocytes, read-out: concentration of maximal inhibitory activity (DNA synthesis)): 2 to 3 µM
IC (maximal) (BALB/MK keratinocytes; BALB/MK, 1 to 4 hours of exposure, washed, read-out: concentration inducing maximal inhibitory effect on DNA synthesis, short exposure): 5 µM
apoptosis by TUNEL method [1]: labeled; also recorded: induced into apoptosis
induction of apoptosis (fibroblasts): fails to induce apoptosis
metastasis on the lungs compared with water-fed control (in words) ([2]; 30 μg, 3 times a week, 24 days, n=6, p=0.005): significantly smaller
lowering of the metastatic load in the lungs ([2]; 30 μg/mouse, 24 days following removal of tumor-bearing leg): ~10 fold
decrease in the metastatic load in the lungs (in words) ([2]; 120 μg/mouse (not shown)): only slight decrease
deaths of disulfiram-treated mice ([2]; by 24th day following leg removal, control 50% died): no disulfiram-treated mice died
mice with no metastases at all ([2]; disulfiram-treated group): two out of six
toxic dose (normal mice): 6-10 mg/mouse/day
